# Assays:
# CEM cells [1] = test: MTT cell viability / cytotoxicity assay in CEM cells; assay type: cell-based, human; details: for IC50: Homo sapiens, CCRF-CEM, MTT assay, after 24 h treatment
# Protocol: (§1) Cell cultures. Acute lymphoblastic leukemia cell line CEM and mantle cell lymphoma cell line Granta were obtained from ATCC and cultured in RPMI-1640 (Thermo Fischer) with 10% FBS (HyClone), sodium piruvate (10 mM), HEPES (10 mM) and antibiotics (referred thereafter as complete medium; Thermo Fischer) (Ref 14; incorporated by reference in its entirety). Peripheral blood samples were collected from healthy volunteers. The ethical Committee of the Blokhin Cancer Research Center approved this study, written informed consents were provided. Mononuclear cell fraction was isolated by 1.077 g/ml Ficoll-Isopaque density-gradient centrifugation and cultured in the complete medium. Cells were pretreated with Rapa (0.1-5 uM), LY294002 (10-100 uM), WM (1-10 uM) and AZD8055 (0.1-2 uM) or vehicle for 6 h, then were treated for Dex (1-10 uM) or vehicle for 24-144 h as indicated.
# (§2) Analysis of cell viability and apoptosis induction. Cell viability was assessed using the MTT assay as follows: cells were incubated at 37° C. for 3 h with 20 ul of MTT solution (5 mg/ml). Supernatant was discarded and 150 μL of 100% DMSO was added to each well. Optical density was measured at 495 nm using a microplate reader MultiScan MCC 340 (Labsystems). The IC50 values was calculated using Quest Graph IC50 Calculator free software. Isobolograms were constructed (Ref 15; incorporated by reference in its entirety). IC50 values of PI3K inhibitors or Dex as single agents were plotted as 1 on the x and y axes, respectively. Various concentrations of PI3K inhibitors and for Dex were combined. The IC50 values for each compound in the combination were calculated and plotted as a percentage of each single drug. The disposition of data points below, above or on the line of additivity indicates synergy, antagonism or additivity, correspondingly.
# (§3) PI3K/Akt/mTOR inhibitors were developed as anti-cancer drugs. To assess whether and how PI3K/Akt/mTOR inhibitors interacted with Dex anti-lymphoma effects, experiments were conducted to evaluate the efficacy of the combined treatment in vitro using such readouts as cell viability (MTT test) and apoptosis (PARP cleavage and sub-G1-phase cell population determined by FACS).
# Granta cells [2] = test: MTT cell viability / cytotoxicity assay in Granta cells; assay type: cell-based, human; details: for IC50: Homo sapiens, MTT assay, after 24 h treatment
# Protocol: as §1, §2, §3
# REDD1 = REDD1 mRNA/protein expression (Q-PCR, Western blot) in CEM and Granta cells; assay type: cell-based, human
# Protocol: as §1
# (§4) Western blot analysis. Western blot analysis was performed (Ref 10; incorporated by reference in its entirety). The following antibodies were used: GR (H-300) (Santa Cruz Biotechnology, Dallas, TX), phospho-GR (Ser211), phospho-4E-BP1 (Thr37/46), phospho-Akt (Ser473), Akt, 4E-BP1, cleaved and full-length PARP, GAPDH, HDAC1 (Cell Signaling, San Jose, CA), REDD1 (Proteintech Group, Rosemont, IL).
# RNA extraction and Q-PCR. […]
# GR [3] = test: GRE.Luciferase reporter assay (GR transactivation) in CEM and Granta cells; assay type: cell-based, human
# Protocol: Luciferase assay. GRE.Luc, NF-κB.Luc and control mCMV.Luc reporter cells were generated (Ref. 13; incorporated by reference in its entirety) using viral stocks obtained from Northwestern University SDRC DNA/RNA delivery Core. Luciferase activity was measured (Ref. 10; incorporated by reference in its entirety).
# REDD1 is a GR target gene (Refs. 10,21; incorporated by reference in their entireties). To assess whether REDD1 inhibitors could modify GR function, LY294002, WM and AZD8055 effect on GR TA and TR was evaluated using CEM and Granta cells transduced with GRE.Luc and NF-kB.Luc reporters. […] Luciferase activity in both cell lines (FIG. 2A, C). […] Attenuation of GR TA was further confirmed by Q-PCR analysis of known GR-target genes including GR chaperone FKBP51 (Refs. 12,14; incorporated by reference in their entireties), mediator of Gcs anti-inflammatory effects GILZ (22,23), transcriptional activator KLF9 (24) and inhibitor of cytokine production MKP-1 (25) (FIG. 2B, D and FIG. 7A, B).
# GR [4] = test: Western blot of GR nuclear translocation; assay type: cell-based, human; details: CEM and Granta cells; LY294002 50 uM, AZD8055 1 uM, Dex 1 uM 24 h
# Protocol: as §4
# To identify the molecular mechanisms underlying GR functional changes induced by PI3K/Akt/mTOR inhibitors, the effect of these compounds on major steps in GR activation was assessed: GR phosphorylation at Ser211 and nuclear translocation that are critical for GR TA (Refs. 27,28; incorporated by reference in their entireties).
# CEM cells [5] = test: Apoptosis induction (PI staining sub-G1, PARP cleavage) in CEM cells; assay type: cell-based, human
# Protocol: (§5) Apoptosis induction was evaluated using Western blot analysis of PARP cleavage and propidium iodine (PI) staining (Ref. 14; incorporated by reference in its entirety).
# (§6) Cooperative anti-lymphoma effects of Dex and PI3K/Akt/mTOR inhibitors in vitro. PI3K/Akt/mTOR inhibitors were developed as anti-cancer drugs. To assess whether and how PI3K/Akt/mTOR inhibitors interacted with Dex anti-lymphoma effects, experiments were conducted to evaluate the efficacy of the combined treatment in vitro using such readouts as cell viability (MTT test) and apoptosis (PARP cleavage and sub-G1-phase cell population determined by FACS). The cytotoxic effect of Dex and PI3K inhibitors in wide concentration range (LY294002 1-500 uM, WM 0.1-25 uM, AZD8055 0.05-5 uM) was assessed (FIG. 8) and determined IC50 values after 24 h treatment (Table 8).
# (§7) The effect of Dex combined with LY294002, AZD8055, WM or reference inhibitor Rapa was examined on apoptosis.
# Granta cells [6] = test: Apoptosis induction (PI staining sub-G1, PARP cleavage) in Granta cells; assay type: cell-based, human
# Protocol: as §5, §6, §7
# Granta xenografts = test: Granta lymphoma xenograft tumor growth study; assay type: in vivo, nu/nu mice; details: 27th day of treatment, vs control; i.p. every 48 h; LY294002 20 mg/kg, Rapa 5 mg/kg, Dex 1 mg/kg
# Protocol: Xenograft tumor growth study. 10 million Granta cells in 200 ul BD Matrigel Matrix were subcutaneously injected into the right flank of 7 weeks old female nu/nu mice (Taconic). Animals were randomized and treated every 48 h with LY294002 (20 mg/kg), Rapamycin (5 mg/kg) of vehicle (30% PEG3350, 4% DMSO, 5% Tween 20 in PBS) followed by Dex (1 mg/kg) of vehicle (5% DMSO in PBS) 6 h later. Body weight was recorded twice a week. Tumor size was measured twice a week by digital calipers, drug interaction mode was calculated based on combination index method (Refs. 16,17; incorporated by reference in their entireties). Combination index (CI) of Dex+Rapa/LY294002 was calculated as ratio (observed fraction value of combination group)/(expected fraction value of combination group). The observed fractions were calculated as ratio (mean value of experiment)/(mean value of control), and the expected fractions values of combination effect between combined groups and single drug groups were calculated as expected fraction=(mean observed fraction of Dex)×(mean observed fraction of Rapa/LY294002). CI<1, CI=1 and CI>1 indicates a synergy, additive effect and antagonism, respectively.
# Histological analysis and immunostaining. […] Ki67 and Caspase 3 were detected by immunostaining with antibodies to Ki-67 and Caspase-3 (Cell Signaling, San Jose, CA).
# Morphometric analysis. Quantification of the epidermal width, dermal adipose thickness, bone thickness and cellularity of xenograft tissue was performed in sections stained with hematoxylin and eosin. At least 5 individual fields per slide of each individual sample/treatment (at least 50 images/treatment group) were analyzed using Axioplan2 microscope software (Carl Zeiss). […]
# Animals were randomized to different treatment groups after tumor volume reached 50 mm3. […] All treatment regiments were only minimally toxic according to the steady increase in body weight monitored twice weekly (FIG. 11). Tumor volume was measured also twice a week (FIG. 12).
# [7] = tested on: Dex-induced osteoporosis and skin atrophy; test: Glucocorticoid-induced osteoporosis (GIOP) and skin atrophy model; assay type: in vivo, BALB/c female mice
# Protocol: Glucocorticoid-induced osteoporosis (GIOP). GIOP was induced as described (18) by i.p. injection of Dex (10 mg/kg) in 12 weeks old BALB/c female mice (“Stolbovaya”, Moscow region, Russia) every 48 h for 5 weeks. 6 h prior to Dex, animals were treated i.p. with LY294002 (20 mg/kg), Rapamycin (5 mg/kg) of vehicle (30% PEG3350, 4% DMSO, 5% Tween-20 in PBS). Body weight was recorded twice a week.
# Histological analysis and immunostaining. Xenograft and skin samples were fixed in formaldehyde, embedded in paraffin, sections were stained with hematoxylin and eosin. The bone samples after formaldehyde fixation were decalcinated in decalcination buffer (0.5 M EDTA, 0.7 mM NaOH, pH=7.0) for 14 days, then washed with PBS twice and further processed according to standard histology protocol. Ki67 and Caspase 3 were detected by immunostaining with antibodies to Ki-67 and Caspase-3 (Cell Signaling, San Jose, CA).
# Morphometric analysis. Quantification of the epidermal width, dermal adipose thickness, bone thickness and cellularity of xenograft tissue was performed in sections stained with hematoxylin and eosin. At least 5 individual fields per slide of each individual sample/treatment (at least 50 images/treatment group) were analyzed using Axioplan2 microscope software (Carl Zeiss). The epidermal, dermal adipose, or bone thickness and cell density in treated animals is presented as % to control animals.
# To test whether REDD1 inhibitors protect against systemic atrophic effects of Gcs, a model of Gcs-induced osteoporosis in Balb/c female mice was used (18) to assess atrophy in both bone and skin induced by high-dose i.p. Dex injections (10 mg/kg) every 48 h for 5 weeks. LY294002 (20 mg/kg), Rapa (5 mg/kg) or vehicle were injected 6 h prior animal treatment with Dex.
# [8] = combination with Dex, IC50 after 24 h treatment
# [9] = used alone for 6 days, LY294002 50 uM, AZD8055 1 uM, WM 10 uM, Dex 1 uM
# [10] = systemic Dex 10 mg/kg every 48 h, 5 weeks, LY294002 20 mg/kg
smiles,measurement,setting,value
COc1ccc(-c2ccc3c(N4CCOC[C@@H]4C)nc(N4CCOC[C@@H]4C)nc3n2)cc1CO [AZD8055],IC50,CEM cells [1],1.36 µM
same,"type of interaction with Dex (isobologram analysis), CEM cells",CEM cells [1]; [8],mostly additive
same,IC50,Granta cells [2],2.02 µM
same,"type of interaction with Dex (isobologram analysis), Granta cells",Granta cells [2]; [8],mostly additive
same,effect on REDD1 induction by Dex,"REDD1; CEM and Granta cells, 6 h pre-treatment (LY294002 50 uM, WM 10 uM, AZD8055 1 uM), then Dex 24 h",prevented REDD1 induction
same,basal REDD1 expression,"REDD1; inhibitor without Dex, mRNA in CEM cells, protein more pronounced in Granta cells",blocked basal and glucocorticoid-induced REDD1 expression
same,Dex-induced GRE.Luciferase activity,"GR [3]; 6 h pre-treatment, Dex 1 uM 24 h",inhibited Dex-induced GRE. Luciferase activity
same,basal GR activity (GRE.Luciferase),GR [3]; applied individually,negatively affected basal GR activity
same,GR nuclear import,GR [4],significantly prevented GR nuclear import
same,"apoptosis (sub-G1-phase cell population), used alone, CEM cells",CEM cells [5],stimulated apoptosis
same,"apoptosis (sub-G1-phase cell population), used alone, Granta cells",Granta cells [6],stimulated apoptosis
C[C@@H]1C[C@H]2[C@@H]3CCC4=CC(=O)C=C[C@]4(C)[C@@]3(F)[C@@H](O)C[C@]2(C)[C@@]1(O)C(=O)CO [Dexamethasone],decrease of CEM survival,CEM cells [1]; [9],50-55%
same,decrease of Granta survival,Granta cells [2]; [9],50-55%
same,decrease in tumor volume,Granta xenografts,~40%
same,femoral bone thickness,[7]; Dex 10 mg/kg vs control,tendency in decrease
same,reduction in dermal adipose thickness,[7]; [10],~70%
same,reduction in epidermal thickness,[7]; [10],~50%
O=c1cc(N2CCOCC2)oc2c(-c3ccccc3)cccc12 [LY294002],IC50,CEM cells [1],62 µM
same,IC50,Granta cells [2],77.6 µM
same,decrease in tumor volume,Granta xenografts,~70%
CO[C@H]1C[C@@H]2CC[C@@H](C)[C@@](O)(O2)C(=O)C(=O)N2CCCC[C@H]2C(=O)O[C@H]([C@H](C)C[C@@H]2CC[C@@H](O)[C@H](OC)C2)CC(=O)[C@H](C)/C=C(\C)[C@@H](O)[C@@H](OC)C(=O)[C@H](C)C[C@H](C)/C=C/C=C/C=C/1C [Rapamycin],decrease in tumor volume,Granta xenografts,~75%
COC[C@H]1OC(=O)c2coc3c2[C@@]1(C)C1=C(C3=O)[C@@H]2CCC(=O)[C@@]2(C)C[C@H]1OC(C)=O [Wortmannin],IC50,CEM cells [1],9.14 µM
same,IC50,Granta cells [2],11.9 µM
